Source: US7622490B2, “Broadspecturm 2-amino-benzoxazole sulfonamide HIV protease inhibitors” (Tibotec Pharmaceuticals, Ltd., priority 2001, dated 2009)

What was measured:
Assay type in all cases: cell-based
[1] = test system: HIV-1 strain LAI; assay: Cellular anti-HIV assay (MTT) in MT4 cells, wild type strain; conditions: five days
Experimental: The compounds of the present invention were examined for anti-viral activity in a cellular assay. […] The cellular assay was performed according to the following procedure.
(§1) HIV- or mock-infected MT4 cells were incubated for five days in the presence of various concentrations of the inhibitor. At the end of the incubation period, all HIV-infected cells have been killed by the replicating virus in the control cultures in the absence of any inhibitor. Cell viability is measured by measuring the concentration of MTT, a yellow, water soluble tetrazolium dye that is converted to a purple, water insoluble formazan in the mitochondria of living cells only. Upon solubilization of the resulting formazan crystals with isopropanol, the absorbance of the solution is monitored at 540 nm. The values correlate directly to the number of living cells remaining in the culture at the completion of the five day incubation. The inhibitory activity of the compound was monitored on the virus-infected cells and was expressed as EC50 and EC90. […] Whetever results are reported as e.g. pEC50 or pCC50 values, the result is expressed as the negative logarithm of the result expressed as EC50 or CC50 respectively.
(§2) As a measure of the broad spectrum activity of the present compounds, the fold resistance (FR), defined as FR=EC50(mutant strain)/EC50(HIV-I strain LAI), was determined.

[2] = test system: HIV strain A; assay: Cellular anti-HIV assay, clinically isolated mutant strain A; conditions: FR=EC50(mutant strain)/EC50(HIV-I strain LAI); MT4 cells
Experimental: as §1, with “EC90. These values represent the amount of the compound required to protect 50% and 90%, respectively, of the cells from the cytopathogenic effect of the virus.” for “EC90.”, “respectively. […]” for “respectively.”
as §2

[3] = test system: HIV strain B; assay: Cellular anti-HIV assay, clinically isolated mutant strain B; conditions: FR=EC50(mutant strain)/EC50(HIV-I strain LAI); MT4 cells
Experimental: as §1, with “EC90. These values represent the amount of the compound required to protect 50% and 90%, respectively, of the cells from the cytopathogenic effect of the virus.” for “EC90.”, “respectively. […]” for “respectively.”
as §2

[4] = test system: HIV strain C; assay: Cellular anti-HIV assay, clinically isolated mutant strain C; conditions: FR=EC50(mutant strain)/EC50(HIV-I strain LAI); MT4 cells
Experimental: as §1, with “EC90. These values represent the amount of the compound required to protect 50% and 90%, respectively, of the cells from the cytopathogenic effect of the virus.” for “EC90.”, “respectively. […]” for “respectively.”
as §2

[5] = test system: HIV strain D; assay: Cellular anti-HIV assay, clinically isolated mutant strain D; conditions: FR=EC50(mutant strain)/EC50(HIV-I strain LAI); MT4 cells
Experimental: as §1, with “EC90. These values represent the amount of the compound required to protect 50% and 90%, respectively, of the cells from the cytopathogenic effect of the virus.” for “EC90.”, “respectively. […]” for “respectively.”
as §2

[6] = test system: HIV strain E; assay: Cellular anti-HIV assay, clinically isolated mutant strain E; conditions: FR=EC50(mutant strain)/EC50(HIV-I strain LAI); MT4 cells
Experimental: as §1, with “EC90. These values represent the amount of the compound required to protect 50% and 90%, respectively, of the cells from the cytopathogenic effect of the virus.” for “EC90.”, “respectively. […]” for “respectively.”
as §2

[7] = test system: HIV strain F; assay: Cellular anti-HIV assay, clinically isolated mutant strain F; conditions: FR=EC50(mutant strain)/EC50(HIV-I strain LAI); MT4 cells
Experimental: as §1, with “EC90. These values represent the amount of the compound required to protect 50% and 90%, respectively, of the cells from the cytopathogenic effect of the virus.” for “EC90.”, “respectively. […]” for “respectively.”
as §2

[8] = test system: mock-infected MT4 cells; assay: Toxicity on mock-infected MT4 cells (MTT); conditions: pCC50 value as determined with mock transfected cells; five days
Experimental: as §1, with “EC90. These values represent the amount of the compound required to protect 50% and 90%, respectively, of the cells from the cytopathogenic effect of the virus.” for “EC90.”
as §2

| Structure (SMILES) | WT (pEC50) [1] | FR value towards mutant A [2] | FR towards mutant B [3] | FR towards mutant C [4] | FR towards mutant D [5] | FR towards mutant E [6] | FR towards mutant F [7] | Tox (pCC50) [8] |
| --- | --- | --- | --- | --- | --- | --- | --- | --- |
| CNc1nc2ccc(S(=O)(=O)N(CC(C)C)CC(O)C(Cc3ccccc3)NC(=O)OC3COC4OCCNC34)cc2o1 (mixture of isomers) [Compound 43] | 7.32 | 3.3 | 1.6 | 0.8 | 0.62 | 0.59 | 14 | 4 |
| CNc1nc2ccc(S(=O)(=O)N(CC(C)C)CC(O)C(Cc3ccccc3)NC(=O)OC3COC4OCCNC34)cc2o1 (mixture of isomers) [Compound 44] | 7.36 | 1.6 | 1.3 | 0.93 | 0.56 | 0.56 | 4.9 | 4 |
